In patent publication US10913781B2, “Pepducin design and use” (Tufts Medical Center, Inc., priority 2011, dated 2021):

Legend:
[1] = target: T1, PAR2 (Homo sapiens, UniProt P55085); assay: Agonist | (%)^†; design: SW620 colon adenocarcinoma cells that endogenously express PAR2; endogenous in cells; host or cells: SW620 (in A7 the SW620 cells were additionally stably transfected with PAR1); conditions: 4 µM
Target sequence in this assay (P55085 26-397 limits assumed): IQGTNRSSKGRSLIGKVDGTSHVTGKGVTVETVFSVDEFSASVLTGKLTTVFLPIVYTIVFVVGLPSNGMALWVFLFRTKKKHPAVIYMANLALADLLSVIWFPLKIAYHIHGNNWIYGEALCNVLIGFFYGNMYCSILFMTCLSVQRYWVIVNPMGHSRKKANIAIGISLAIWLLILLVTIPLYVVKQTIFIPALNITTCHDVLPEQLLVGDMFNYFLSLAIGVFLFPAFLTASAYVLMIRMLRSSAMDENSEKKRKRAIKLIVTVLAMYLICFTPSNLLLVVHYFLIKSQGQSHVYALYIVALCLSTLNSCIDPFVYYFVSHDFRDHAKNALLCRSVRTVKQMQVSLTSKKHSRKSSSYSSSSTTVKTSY
Description: (§2) (A) Agonist and antagonist activity of third intracellular (i3) loop PAR2 pepducins (structure shown on top) using calcium flux assays with SW620 colon adenocarcinoma cells that endogenously express PAR2. Each column of three calcium flux traces corresponds to the i3 pepducin sequence shown above. The top row is the agonist activity of 3-4 μM pepducin and the middle row is the agonist activity of 14-15 μM pepducin. […] Final concentration of DMSO vehicle was 0.2%. […] (C) Agonist activity for each pepducin from (A) is reported as initial velocity of calcium flux at 4 μM pepducin (†), or at 14-15 μM pepducin (‡).

[2] = target: T2, PAR1 (Homo sapiens, UniProt P25116); assay: Calcium flux in SW620 cells stably transfected with PAR1, TFLLRN stimulus; type: cell-based; conditions: 30 μM TFLLRN
T2 sequence (P25116 22-425): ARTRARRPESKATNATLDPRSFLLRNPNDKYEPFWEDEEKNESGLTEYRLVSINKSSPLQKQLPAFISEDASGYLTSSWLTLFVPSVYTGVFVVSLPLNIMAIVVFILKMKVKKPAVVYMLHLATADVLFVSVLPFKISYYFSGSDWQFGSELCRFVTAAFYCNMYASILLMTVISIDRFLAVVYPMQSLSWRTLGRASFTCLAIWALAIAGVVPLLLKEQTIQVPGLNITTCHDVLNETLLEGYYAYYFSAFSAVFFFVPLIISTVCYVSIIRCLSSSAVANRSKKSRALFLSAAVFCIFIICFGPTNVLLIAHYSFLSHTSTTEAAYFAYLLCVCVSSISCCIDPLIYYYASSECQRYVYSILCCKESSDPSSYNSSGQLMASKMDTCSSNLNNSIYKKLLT
Description: (§1) (A) PAR2 antagonist pepducins P2pal-18S and P2pal-14GQ inhibit calcium flux induced by PAR2 (SLIGRL) (SEQ ID NO:4) but not PAR1 (TFLLRN) (SEQ ID NO:2) agonists. SW620 cells were stably transfected with PAR1 and pretreated for 1 min with various concentrations of P2pal-18S or P2pal-14GQ and then stimulated with 30 μM PAR agonist. […] Cells were stimulated with 1 μM TFLLRN (SEQ ID NO:2), 1 μM SLIGRL (SEQ ID NO:4) or 100 μM AYPGKF (SEQ ID NO:5) and [^3H]-InsP formation measured over 30 min. (C) SW620 cells were treated with the indicated concentrations of P2pal-18S or P2pal-14GQ in the upper well of an 8-μm pore Boyden chamber and allowed to migrate for 18 h towards 10 μM of the PAR2 specific agonist SLIGRL in the lower chamber. The migration to RPMI/0.1% FBS represents random migration. (D) Migration of HEK cells transiently transfected with PAR2 (wild-type, WT), or PAR2-R36A/PAR2-RQ toward chemotactic gradients of 30 nM trypsin in the absence or presence of the indicated concentration of P2pal-18S for 18 h in a transwell apparatus ([…]). Data (n=2-4) are mean±SEM. *, P<0.05 and **, P<0.005.

[3] = target: T3, PAR4 (Homo sapiens, UniProt Q96RI0); assay: Calcium flux assay in SW620 cells, PAR4; type: cell-based; design: endogenous in cells
T3 sequence (Q96RI0 18-385): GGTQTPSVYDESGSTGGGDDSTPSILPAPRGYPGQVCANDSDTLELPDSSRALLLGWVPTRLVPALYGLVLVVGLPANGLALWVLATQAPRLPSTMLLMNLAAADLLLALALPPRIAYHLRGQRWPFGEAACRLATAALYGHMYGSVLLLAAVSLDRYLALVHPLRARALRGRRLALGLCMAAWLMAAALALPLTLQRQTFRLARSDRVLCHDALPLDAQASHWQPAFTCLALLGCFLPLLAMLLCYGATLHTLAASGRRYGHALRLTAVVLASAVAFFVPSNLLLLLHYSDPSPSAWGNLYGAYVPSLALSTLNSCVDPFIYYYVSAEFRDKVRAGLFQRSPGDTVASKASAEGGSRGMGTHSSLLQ

[4] = target: T1, PAR2; assay: Calcium flux screen for PAR2 pepducin agonist and antagonist activity in SW620 cells; type: cell-based; design: SW620 colon adenocarcinoma cells that endogenously express PAR2; endogenous in cells; host or cells: SW620 (in A7 the SW620 cells were additionally stably transfected with PAR1); conditions: 3-4 μM and 14-15 μM pepducin
Target sequence in this assay (P55085 26-397): as the sequence (P55085 26-397 limits assumed) above
Description: as §2

[5] = target: T1, PAR2; assay: PAR2 binding to avidin beads coupled with PAR2 i3 loop 18S peptide
Target sequence in this assay (P55085 26-397): as the sequence (P55085 26-397 limits assumed) above

[6] = target: T1, PAR2; assay: PLC-b inositol phosphate formation, PAR2 (SLIGRL); type: cell-based; design: expressed in transfected cells; host or cells: COS7
Description: as §1
Target sequence in this assay (P55085 26-397): as the sequence (P55085 26-397 limits assumed) above
Additionally, we tested whether P2pal-18S inhibited proteolytic cleavage of PAR2 or endocytosis (DeFea K A, et al. (2000) J Cell Biol 148: 1267-81; Roosterman D, et al. (2003) Am J Physiol Cell Physiol 284: C1319-29; Stalheim L, et al. (2005) Mol Pharmacol 67: 78-87). […]

[7] = target: T2, PAR1; assay: Human neutrophil chemotaxis to TFLLRN; type: cell-based; design: endogenous in cells; conditions: 10 μM TFLLRN
Description: (A) Human neutrophils (n=4 normal volunteers) were analyzed for surface expression of human PAR1, PAR2, and PAR4 by flow cytometry with PAR-specific antibodies. […] Chemotaxis index is the ratio of directed versus random migration over 30 min through a 5-μm pore filter.
P2pal-18S had no effect on PAR1-dependent platelet aggregation (FIG. 5A). Neither P2pal-18S nor P2pal-14GQ caused membrane disruption or apoptosis as assessed by propidium iodide uptake in SW620 cells with up to 30 μM concentrations of pepducin (FIG. 5B).

With `CCCCCCCCCCCCCCCC(=O)N[C@@H](CCCNC(=N)N)C(=O)N[C@@H](CO)C(=O)N[C@@H](CO)C(=O)N[C@@H](C)C(=O)N[C@@H](CCSC)C(=O)N[C@@H](CC(=O)O)C(=O)N[C@@H](CCC(=O)O)C(=O)N[C@@H](CC(N)=O)C(=O)N[C@@H](CO)C(=O)N[C@@H](CCC(=O)O)C(=O)N[C@@H](CCCCN)C(=O)N[C@@H](CCCCN)C(=O)N[C@@H](CCCNC(=N)N)C(=O)N[C@@H](CCCCN)C(=O)N[C@@H](CO)C(=O)N[C@@H](C)C(=O)N[C@H](C(=O)N[C@@H](CCCCN)C(N)=O)[C@@H](C)CC` [P2pal-18S] the “Agonist | (%)^†” value [1] was 3%, the “Inhibition of PAR1 calcium flux” value [2] was “did not inhibit” and the “Inhibition of PAR4 calcium flux” value [3] was “did not inhibit”. For the same compound, the “Agonist activity (calcium flux)” value [4] was “no detectable or otherwise significant agonist activity”, the “Binding of PAR2 to peptide-coupled avidin beads versus beads alone” value [5] was “enhanced binding” and the “Inhibition of PAR2-dependent PLC-b inositol phosphate formation” value [6] was “can inhibit”. The “Antagonist activity, neutrophil chemotaxis, PAR1” value [7] was “no antagonist activity”.
